Read-outs that look alike come from different tables or passages of the source.
What was measured:
Assay type in all cases: cell-based
MDA-MB231 = assay: MTT assay, MDA-MB231 breast cancer cells; conditions: Homo sapiens, MDA-MB-231; for viability at 10 µM: 72 h after the treatment, mean of three independent experiments, read-out: Percentage of cell viability MDA-MB231
Description: (§1) The prepared compounds 1–126 were tested on three breast cancer cell lines namely, MDA-MB231, SKBR-3 and MCF-7 using MTT assay. SKBR-3 and MCF-7 cell lines are estrogen and progesterone hormone positive cell lines often used as a model for the hormone therapy.[18] MDA-MB231 is triple negative breast cancer cell line, which is negative to estrogen and progesterone receptors and human epidermal growth factor receptor 2, a perfect model for chemotherapy.[18] Initially, all the prepared compounds 1–126 were tested on these three cancer cell lines at the screening concentration (10 μM) and percentage of cell viability was calculated 72 h after the treatment (Table 1).
(§2) The growth inhibitory effect of the compounds was determined on breast tumor cell line (MDA-MB231, SKBR-3 and MCF-7) at different concentrations with methotrexate and nilotinib as positive controls (Table 2).
(§3) The cytotoxic activity of 6,N^2-diaryl-1,3,5-triazine-2,4-diamines (1–126) was evaluated against three breast carcinoma cell lines (MDA-MB231, SKBR-3, and MCF-7) and normal breast cell line (MCF-10A) by MTT assay.[22] All cells were obtained from the American Type Culture Collection and were grown in 10% fetal bovine serum and 1% pen-strep antibiotic supplemented media (DMEM for MDA-MB231 and SKBR-3, RPMI for MCF-7, and MEGM for MCF-10A). For MTT assay, 20 000 to 75 000 cells per mL (based on the doubling time for each cell line) were seeded in 96 well plates and incubated for 24 h at 37 °C in 5% CO2 incubator. Then, compounds at different concentrations were added followed by the incubation at 37 °C for 72 h. After that, MTT solution (0.5 mg mL^−1) was added and the plates were incubated for another 4 h. The supernatant was then discarded and 100 μL of DMSO was added to each well. The plates were then read by Tecan NanoQuant (model: infinite m200 pro) plate reader and absorbance was measured at 570 nm. GI50 values were calculated using sigmoidal concentration–response curves (see ESI ^†) generated using the GraphPad Prism 7 program. Three independent experiments were carried out and the data were represented as mean of the three experiments.

SKBR-3 = assay: MTT assay, SKBR-3 breast cancer cells; conditions: Homo sapiens, SK-BR-3, MTT; for viability at 10 µM: 72 h after the treatment, mean of three independent experiments, read-out: Percentage of cell viability SKBR-3; for GI50: 72 h, mean of three independent experiments ± SEM
Description: as §1, §2, §3

MCF-7 = assay: MTT assay, MCF-7 breast cancer cells; conditions: Homo sapiens; for viability at 10 µM: MCF7, 10 μM, 72 h after the treatment, mean of three independent experiments, read-out: Percentage of cell viability MCF-7; for GI50: MCF7, 72 h, mean of three independent experiments ± SEM
Description: as §1, §2, §3

MCF-10A = assay: MTT assay, MCF-10A normal breast cells; conditions: Homo sapiens, 72 h, read-out: GI50 (μM) ± SEM MCF-10A
Description: All the compounds, selected for determination of GI50 values against MDA-MB231 cells, were also used for the experiments with MCF-10A normal breast cells.
as §3

[1] = 72 h, MTT, mean of three independent experiments ± SEM, read-out: GI50 (μM) ± SEM MDA-MB231
[2] = −log[GI50], MDA-MB231, read-out: Experimental pGI50 (converted)

Structure (SMILES) | viability at 10 µM (MDA-MB231; MTT) [%] | GI50 (MDA-MB231; [1]) [µM] | GI50 (MDA-MB231; [2]) [µM] | viability at 10 µM (SKBR-3) [%] | GI50 (SKBR-3) [µM] | viability at 10 µM (MCF-7) [%] | GI50 (MCF-7) [µM] | GI50 (MCF-10A) [µM]
Cc1cccc(-c2nc(N)nc(Nc3ccc(OC(F)(F)F)cc3)n2)c1 [Compound 58] | 50 | 15.2 ± 1.01 | 15.1 | 100 | > 20 | 73 | > 20 | > 25
Nc1nc(Nc2ccc(OC(F)(F)F)cc2)nc(-c2cccc(F)c2)n1 [Compound 19] | 50 | 8.56 ± 0.59 | 8.51 | 100 | > 20 | 76 | 18.2 ± 1.28 | > 25
CN(C)c1ccc(-c2nc(N)nc(Nc3ccccc3)n2)cc1 [Compound 100] | 21 | 0.36 ± 0.07 | 0.363 | 61 | 4.19 ± 0.37 | 80 | > 20 | > 25
COc1ccc(-c2nc(N)nc(Nc3ccccc3F)n2)cc1 [Compound 70] | 9 | 0.32 ± 0.04 | 0.324 | 46 | > 20 | 63 | > 20 | > 25
Nc1nc(Nc2ccc(F)cc2)nc(-c2ccc(Cl)cc2)n1 [Compound 36] | 49 | 14.1 ± 1.52 | 14.1 | 98 | 19.4 ± 2.39 | 100 | > 20 | > 25
Nc1nc(Nc2ccc(F)cc2)nc(-c2cccc(F)c2)n1 [Compound 14] | 50 | 9.21 ± 0.38 | 9.12 | 100 | > 20 | 78 | > 20 | > 25
Cc1cccc(-c2nc(N)nc(Nc3ccc(F)cc3)n2)c1 [Compound 53, N ^2-(4-Fluorophenyl)-6-(3-methylphenyl)-1,3,5-triazine-2,4-diamine] | 100 | – | – | 100 | – | 78 | – | –
Nc1nc(Nc2cccnc2)nc(-c2cccs2)n1 [Compound 126] | 100 | – | – | 91 | – | 86 | – | –
Nc1nc(Nc2ccc(Cl)cc2)nc(-c2cccc(F)c2)n1 [Compound 15] | 100 | – | – | 100 | – | 89 | – | –
COc1ccc(Nc2nc(N)nc(-c3ccc(Cl)cc3)n2)cc1 [Compound 42] | 61 | – | – | 90 | – | 85 | – | –
Cc1ccc(Nc2nc(N)nc(-c3ccccc3)n2)cc1 [Compound 7] | 98 | – | – | 87 | – | 87 | – | –
CC(C)c1ccc(Nc2nc(N)nc(-c3cccc(F)c3)n2)cc1 [Compound 20] | 100 | – | – | 100 | – | 92 | – | –
Nc1nc(Nc2ccc(F)cc2)nc(-c2ccc(Br)cc2)n1 [Compound 47] | 58 | – | – | 98 | – | 100 | – | –
COc1ccc(Nc2nc(N)nc(-c3ccc(OC(F)(F)F)cc3)n2)cc1 [Compound 96] | 69 | – | – | 88 | – | 87 | – | –
Nc1nc(Nc2ccc(OC(F)(F)F)cc2)nc(-c2ccccc2)n1 [Compound 10] | 96 | – | – | 86 | – | 92 | – | –
CC(C)c1ccc(Nc2nc(N)nc(-c3ccc(OC(F)(F)F)cc3)n2)cc1 [Compound 98] | 100 | – | – | 90 | – | 95 | – | –
Cc1cccc(-c2nc(N)nc(Nc3ccc(Br)cc3)n2)c1 [Compound 55] | 83 | – | – | 96 | – | 75 | – | –
CC(C)c1ccc(Nc2nc(N)nc(-c3ccccc3)n2)cc1 [Compound 11] | 99 | – | – | 86 | – | 99 | – | –

Structure (SMILES) | viability at 10 µM (MDA-MB231; MTT) [%] | GI50 (MDA-MB231; [1]) [µM] | GI50 (MDA-MB231; [2]) [µM] | viability at 10 µM (SKBR-3) [%] | GI50 (SKBR-3) [µM] | viability at 10 µM (MCF-7) [%] | GI50 (MCF-7) [µM] | GI50 (MCF-10A) [µM]
Nc1nc(Nc2cccnc2)nc(-c2ccc(Cl)cc2)n1 [Compound 45] | 99 | – | – | 74 | – | 89 | – | –
COc1ccc(Nc2nc(N)nc(-c3cccs3)n2)cc1 [Compound 123, N ^2-(4-Methoxyphenyl)-6-(thiophen-2-yl)-1,3,5-triazine-2,4-diamine] | 93 | – | – | 88 | – | 80 | – | –
Nc1nc(Nc2ccccc2F)nc(-c2ccc(Br)cc2)n1 [Compound 46] | 75 | – | – | 91 | – | 100 | – | –
Nc1nc(Nc2ccc(Br)cc2)nc(-c2ccc(OCc3ccccc3)cc2)n1 [Compound 112] | 82 | – | – | 93 | – | 97 | – | –
Nc1nc(Nc2ccc(Cl)cc2)nc(-c2ccc(C(F)(F)F)cc2)n1 [Compound 85] | 90 | – | – | 77 | – | 99 | – | –
Nc1nc(Nc2ccccc2F)nc(-c2ccc(F)cc2)n1 [Compound 22] | 83 | – | – | 85 | – | 100 | – | –
CC(C)(C)c1ccc(-c2nc(N)nc(Nc3ccccc3)n2)cc1 [Compound 105] | 74 | – | – | 100 | – | 96 | – | –
CC(C)c1ccc(Nc2nc(N)nc(-c3ccc(F)cc3)n2)cc1 [Compound 32] | 94 | – | – | 100 | – | 84 | – | –
COc1ccc(Nc2nc(N)nc(-c3ccc(C(C)(C)C)cc3)n2)cc1 [Compound 109] | 91 | – | – | 85 | – | 93 | – | –
Nc1nc(Nc2cccc(Cl)c2)nc(-c2ccc(Cl)cc2)n1 [Compound 38] | 99 | – | – | 92 | – | 84 | – | –
Nc1nc(Nc2ccc(Br)cc2)nc(-c2ccc(F)cc2)n1 [Compound 27] | 96 | – | – | 100 | – | 94 | – | –
COc1ccc(Nc2nc(N)nc(-c3cccc(C)c3)n2)cc1 [Compound 57, N ^2-(4-Methoxyphenyl)-6-(3-methylphenyl)-1,3,5-triazine-2,4-diamine] | 91 | – | – | 90 | – | 75 | – | –
COc1ccc(Nc2nc(N)nc(-c3ccc(C)cc3)n2)cc1 [Compound 66] | 83 | – | – | 89 | – | 100 | – | –
COc1ccc(-c2nc(N)nc(Nc3ccc(C(C)C)cc3)n2)cc1 [Compound 80] | 92 | – | – | 86 | – | 100 | – | –
Cc1ccc(-c2nc(N)nc(Nc3ccccc3)n2)cc1 [Compound 60] | 84 | – | – | 100 | – | 100 | – | –
Nc1nc(Nc2ccc(Cl)cc2)nc(-c2ccc(F)cc2)n1 [Compound 26] | 67 | – | – | 98 | – | 87 | – | –
COc1ccc(Nc2nc(N)nc(-c3ccccc3)n2)cc1 [Compound 9] | 98 | – | – | 96 | – | 84 | – | –
Nc1nc(Nc2ccccc2Cl)nc(-c2ccc(OC(F)(F)F)cc2)n1 [Compound 92] | 74 | – | – | 86 | – | 96 | – | –
